# Test results published in patent publication US10988459B2 (priority 2015, dated 2021).
# pKi: −log10 of the molar value.
# Molecular target: human RIP1 kinase domain (2-375) (Homo sapiens (Human), UniProt Q13546)
# Assay: biochemical
# Type: biochemical
# Conditions: Table 1; apparent Ki (Morrison tight-binding fit); 50 nM RIP1 kinase domain, 50 uM ATP, 2 hours incubation; read-out: RIP1 Ki
# In short: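 50 nM purified kinase domain from baculovirus-infected insect cells, incubated 2 h with compound in 50 mM Hepes pH 7.5, 30 mM MgCl2, 1 mM DTT, 50 uM ATP, 0.002% Brij-35, 0.5% DMSO. ADP formation read by Transcreener FP at 633 nm excitation. Ki^app fitted with the Morrison tight-binding equation.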
# human RIP1 kinase domain (2-375), sequence (Q13546 2-375): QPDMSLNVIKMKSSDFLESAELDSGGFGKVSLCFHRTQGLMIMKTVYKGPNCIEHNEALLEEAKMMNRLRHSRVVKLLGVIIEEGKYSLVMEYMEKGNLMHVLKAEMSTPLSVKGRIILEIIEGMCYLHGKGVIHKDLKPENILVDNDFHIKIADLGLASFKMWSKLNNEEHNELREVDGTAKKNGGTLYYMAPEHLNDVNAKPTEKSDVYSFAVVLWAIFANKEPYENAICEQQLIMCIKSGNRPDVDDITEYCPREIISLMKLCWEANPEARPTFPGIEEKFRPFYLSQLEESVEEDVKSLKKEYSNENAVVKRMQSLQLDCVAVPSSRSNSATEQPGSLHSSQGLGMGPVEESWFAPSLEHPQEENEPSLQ
row,Structure (SMILES),pKi
1,"CC1CCc2noc(C(=O)N[C@H]3COc4ccccc4NC3=O)c2C1 (stereo partly drawn) [Example 62, 5-methyl-N-((S)-4-oxo-2,3,4,5-tetrahydrobenzo[b][1,4]oxazepin-3-yl)-4,5,6,7-tetrahydrobenzo[c]isoxazole-3-carboxamide]",6.60

# Same assay, conditions: Table 3; apparent Ki (Morrison tight-binding fit); 50 nM RIP1 kinase domain, 50 uM ATP, 2 hours incubation; read-out: Ki
row,Structure (SMILES),pKi
1,"CCC1CCc2n[nH]c(C(=O)N[C@H]3COc4ccccc4N(C)C3=O)c2C1 (stereo partly drawn) [Example 335, 5-ethyl-N-((S)-5-methyl-4-oxo-2,3,4,5-tetrahydrobenzo[b][1,4]oxazepin-3-yl)-4,5,6,7-tetrahydro-2H-indazole-3-carboxamide]",7.89

# Same assay, conditions: Table 5; apparent Ki (Morrison tight-binding fit); 50 nM RIP1 kinase domain, 50 uM ATP, 2 hours incubation; read-out: Ki
row,pKi,Structure (SMILES)
1,6.77,"CN1C(=O)C(NC(=O)c2ncn(Cc3ccccc3)n2)CCn2nc(-c3cnn(C)c3)cc21 (racemic) [Example 778, 1-benzyl-N-(4-methyl-2-(1-methyl-1H-pyrazol-4-yl)-5-oxo-5,6,7,8-tetrahydro-4H-pyrazolo[1,5-a][1,3]diazepin-6-yl)-1H-1,2,4-triazole-3-carboxamide]"
2,6.67,"Cc1nc(-c2cc3n(n2)CCC(NC(=O)c2ncn(Cc4ccccc4)n2)C(=O)N3C)cn1C (racemic) [Example 776, 1-benzyl-N-(2-(1,2-dimethyl-1H-imidazol-4-yl)-4-methyl-5-oxo-5,6,7,8-tetrahydro-4H-pyrazolo[1,5-a][1,3]diazepin-6-yl)-1H-1,2,4-triazole-3-carboxamide]"
3,6.74,"Cc1ncc(-c2cc3n(n2)CCC(NC(=O)c2ncn(Cc4ccccc4)n2)C(=O)N3C)n1C (racemic) [Example 775, 1-benzyl-N-(2-(1,2-dimethyl-1H-imidazol-5-yl)-4-methyl-5-oxo-5,6,7,8-tetrahydro-4H-pyrazolo[1,5-a][1,3]diazepin-6-yl)-1H-1,2,4-triazole-3-carboxamide]"

# Same assay, conditions: human RIP1 kinase domain (2-375), 50 uM ATP, 2 hours incubation, Transcreener ADP assay; read-out: RIP1 Ki
row,pKi,Structure (SMILES)
1,6.47,"CN1C(=O)C(NC(=O)c2cn(Cc3ccccc3)nn2)CCn2ccnc21 (stereo not shown) [Example 196, 1-benzyl-N-(9-methyl-8-oxo-6,7,8,9-tetrahydro-5H-imidazo[1,2-a][1,3]diazepin-7-yl)-1H-1,2,3-triazole-4-carboxamide]"
2,6.43,"CN1C(=O)[C@@H](NC(=O)c2nnc3n2CC(C(F)(F)C(F)(F)F)CC3)COc2ccccc21 (stereo partly drawn) [Example 116, N—((S)-5-methyl-4-oxo-2,3,4,5-tetrahydrobenzo[b][1,4]oxazepin-3-yl)-6-(perfluoroethyl)-5,6,7,8-tetrahydro-[1,2,4]triazolo[4,3-a]pyridine-3-carboxamide]"

row,Structure (SMILES),pKi
1,"CN1C(=O)[C@@H](NC(=O)c2nnn3c2C[C@H](C(F)(F)F)CC3)COc2ccccc21 [Example 149, (R)-N-((S)-5-methyl-4-oxo-2,3,4,5-tetrahydrobenzo[b][1,4]oxazepin-3-yl)-5-(trifluoromethyl)-4,5,6,7-tetrahydro-[1,2,3]triazolo[1,5-a]pyridine-3-carboxamide]",7.19

# Same assay, conditions: human RIP1 kinase domain (2-375), Transcreener ADP assay, 50 uM ATP, 2 hours incubation; read-out: RIP1 Ki
row,pKi,Structure (SMILES)
1,7.43,"CN1C(=O)[C@@H](NC(=O)c2cc3c(cn2)COC3(C)C2CC2)COc2ccccc21 (stereo partly drawn) [Example 267, 1-cyclopropyl-1-methyl-N—((S)-5-methyl-4-oxo-2,3,4,5-tetrahydrobenzo[b][1,4]oxazepin-3-yl)-1,3-dihydrofuro[3,4-c]pyridine-6-carboxamide]"
2,7.54,"CN1C(=O)[C@@H](NC(=O)c2ncn(Cc3ccc(F)cc3F)n2)CCn2nc([C@@H]3CC3(F)F)cc21 [Example 322, 1-(2,4-difluorobenzyl)-N—((S)-2-((S)-2,2-difluorocyclopropyl)-4-methyl-5-oxo-5,6,7,8-tetrahydro-4H-pyrazolo[1,5-a][1,3]diazepin-6-yl)-1H-1,2,4-triazole-3-carboxamide]"
3,5.10,"CC[C@@]1(C)OCc2cnc(C(=O)NC3CCn4nc(C5CCOCC5)cc4N(C)C3=O)cc21 (stereo partly drawn) [Example 236, (1R)-1-ethyl-1-methyl-N-(4-methyl-5-oxo-2-(tetrahydro-2H-pyran-4-yl)-5,6,7,8-tetrahydro-4H-pyrazolo[1,5-a][1,3]diazepin-6-yl)-1,3-dihydrofuro[3,4-c]pyridine-6-carboxamide]"
4,5.02,"CN1C(=O)[C@@H](NC(=O)c2ncn(Cc3ccc(F)cc3F)n2)CCn2nc([C@H]3CC3(F)F)cc21 [Example 315, 1-(2,4-difluorobenzyl)-N—((S)-2-((R)-2,2-difluorocyclopropyl)-4-methyl-5-oxo-5,6,7,8-tetrahydro-4H-pyrazolo[1,5-a][1,3]diazepin-6-yl)-1H-1,2,4-triazole-3-carboxamide]"
5,7.14,"CN1C(=O)C(NC(=O)c2n[nH]c(Cc3ccccc3)n2)CCn2cncc21 (stereo not shown) [Example 293, 5-benzyl-N-(1-methyl-2-oxo-2,3,4,5-tetrahydro-1H-imidazo[1,5-a][1,3]diazepin-3-yl)-1H-1,2,4-triazole-3-carboxamide]"

# Same assay, conditions: read-out: RIP1 Ki
row,Structure (SMILES),pKi
1,"CN1C(=O)[C@@H](NC(=O)c2n[nH]c3c2C[C@@H](C(C)(C)C)CC3)COc2ccccc21 [Example 58, (S)-5-(tert-butyl)-N-((S)-5-methyl-4-oxo-2,3,4,5-tetrahydrobenzo[b][1,4]oxazepin-3-yl)-4,5,6,7-tetrahydro-1H-indazole-3-carboxamide]",6.92

# Same assay, conditions: tight-binding apparent inhibition constant; human RIP1 kinase domain (2-375) 50 nM, 50 uM ATP, 2 hours; read-out: Ki
row,Structure (SMILES),pKi
1,"CN1C(=O)[C@@H](NC(=O)c2nc3cccc(C4CCOCC4)n3n2)COc2ccccc21 [Example 405, (S)—N-(5-methyl-4-oxo-2,3,4,5-tetrahydrobenzo[b][1,4]oxazepin-3-yl)-5-(tetrahydro-2H-pyran-4-yl)-[1,2,4]triazolo[1,5-a]pyridine-2-carboxamide]",7.45
2,"CN1C(=O)[C@@H](NC(=O)c2nc3n(n2)[C@H](C(F)(F)F)CC3)COc2ccccc21 [Example 350, (5S)—N-[(3S)-5-methyl-4-oxo-2,3-dihydro-1,5-benzoxazepin-3-yl]-5-(trifluoromethyl)-6,7-dihydro-5H-pyrrolo[1,2-b][1,2,4]triazole-2-carboxamide]",7.71
3,"Cc1cc2n(n1)CC[C@H](NC(=O)c1ncc3cnn(C(C)C)c3n1)C(=O)N2C [Example 539, 1-isopropyl-N-[(6S)-2,4-dimethyl-5-oxo-7,8-dihydro-6H-pyrazolo[1,5-a][1,3]diazepin-6-yl]pyrazolo[3,4-d]pyrimidine-6-carboxamide]",6.82
4,"CN1C(=O)[C@@H](NC(=O)c2nc3cccc(C4=CCOCC4)n3n2)CCn2nccc21 [Example 395, (S)-5-(3,6-dihydro-2H-pyran-4-yl)-N-(4-methyl-5-oxo-5,6,7,8-tetrahydro-4H-pyrazolo[1,5-a][1,3]diazepin-6-yl)-[1,2,4]triazolo[1,5-a]pyridine-2-carboxamide]",6.98
5,"Cc1ccccc1Cn1cnc(C(=O)N[C@H]2CCn3nccc3N(C)C2=O)n1 [Example 588, 1-(o-tolylmethyl)-N-(6S)-4-methyl-5-oxo-7,8-dihydro-6H-pyrazolo[1,5-a][1,3]diazepin-6-yl-1,2,4-triazole-3-carboxamide]",7.89
6,"CC[C@]1(C)OCc2cnc(C(=O)N[C@H]3CCn4nc(C)cc4N(C)C3=O)nc21 (racemic) [Example 690, rac-(7S)-7-ethyl-7-methyl-N-[rac-(6S)-2,4-dimethyl-5-oxo-7,8-dihydro-6H-pyrazolo [1,5-a][1,3]diapepin-6-yl]-5H-furo[3,4-d]pyrimidine-2-carboxamide]",5.93
7,"CN1C(=O)[C@@H](NC(=O)c2nc3cccc(-c4cc(F)ccc4F)n3n2)CCn2nccc21 [Example 382, (S)-5-(2,5-difluorophenyl)-N-(4-methyl-5-oxo-5,6,7,8-tetrahydro-4H-pyrazolo[1,5-a][1,3]diazepin-6-yl)-[1,2,4]triazolo[1,5-a]pyridine-2-carboxamide]",7.88

# The next lines start with the values.
row,pKi,Structure (SMILES)
1,6.67,"O=C(N[C@H]1CCc2cc(F)cc(F)c2NC1=O)c1nc2n(n1)[C@@H](C(F)(F)F)CCC2 (single isomer, unassigned) [Example 429]"
2,7.96,"Cc1cc2n(n1)CC[C@H](NC(=O)c1nc3n(n1)[C@@H](c1ccccc1)CC3)C(=O)N2C [Example 615, (5R)-5-phenyl-N-[(6S)-2,4-dimethyl-5-oxo-7,8-dihydro-6H-pyrazolo[1,5-a][1,3]diazepin-6-yl]-6,7-dihydro-5H-pyrrolo[1,2-b][1,2,4]triazole-2-carboxamide]"
3,7.22,"CC(C)c1cc2n(n1)CCC(NC(=O)c1ncn(Cc3ccccc3)n1)C(=O)N2C (stereo not shown) [Example 455, 1-Benzyl-N-(2-isopropyl-4-methyl-5-oxo-5,6,7,8-tetrahydro-4H-pyrazol[1,5-a][1,3]diazepin-6-yl)-1H-1,2,4-triazole-3-carboxamide]"
4,6.45,"CN1C(=O)C(NC(=O)c2ncn(Cc3ccccc3)n2)CCn2nc(CN3CC(F)C3)cc21 (single isomer, unassigned) [Example 450, 1-benzyl-N-(2-((3-fluoroazetidin-1-yl)methyl)-4-methyl-5-oxo-5,6,7,8-tetrahydro-4H-pyrazolo[1,5-a][1,3]diazepin-6-yl)-1H-1,2,4-triazole-3-carboxamide]"
5,8.46,"CCC[C@@H]1CCCc2nc(C(=O)N[C@H]3COc4cc(F)cc(F)c4NC3=O)nn21 (single isomer, unassigned) [Example 445]"
6,6.51,"Cc1cc2n(n1)CC[C@H](NC(=O)c1ncn(Cc3ncccc3C)n1)C(=O)N2C [Example 644, 1-[(3-methyl-2-pyridyl)methyl]-N-(6S)-2,4-dimethyl-5-oxo-7,8-dihydro-6H-pyrazolo[1,5-a][1,3]diazepin-6-yl-1,2,4-triazole-3-carboxamide]"
7,6.36,"O=C(N[C@H]1COc2cc(F)cc(F)c2NC1=O)c1nc2n(n1)[C@@H](C(F)(F)F)CCC2 (single isomer, unassigned) [Example 431]"
